Molecules are shown by their SMILES.

In one test the target is T1, SCF-Skp2 (Skp2-Cks1) (Homo sapiens, UniProt P61024+Q13309).
T1 construct: made in house; host or cells: cell-free: rabbit reticulocyte lysate (TNT T7 Coupled Reticulocyte Lysate System, Promega) from pcDNA3.1 plasmids
Briefly: In vitro ubiquitylation assay, Skp2-mediated p27 ubiquitylation (Wild-Type Cks1). The test is classed as biochemical. The conditions noted are these: 50 μM compound, immunoblot for p27-(Ub)n. Here is the method: The 96 hits were tested in an in vitro ubiquitylation assay driven by in vitro transcribed/translated Skp2, Cks1, and p27 (Sitry et al., “Three Different Binding Sites of Cks1 are Required for p27-ubiquitin Ligation,” J. Biol. Chem. 277:42233-42240 (2002)). Assay sensitivity was established for various criteria (FIG. 1B): Enhanced ubiquitylation with Cks1 (lane 2), kinase activity requirement (lane 3), and responsiveness to known inhibitors of Cullin (lane 5) or Cdk2 (lane 6) activity (Meijer et al., “Biochemical and Cellular Effects of Roscovitine, a Potent and Selective Inhibitor of the Cyclin-dependent Kinases cdc2, cdk2 and cdk5,” Eur. J. Biochem. 243:527-536 (1997); Soucy et al., “An Inhibitor of NEDD8-activating Enzyme as a New Approach to Treat Cancer,” Nature 458:732-736 (2009), which are hereby incorporated by reference in their entirety). Compounds showing at least 50% inhibition of Skp2-mediated p27 ubiquitylation (FIG. 1C) were counter-screened for inactivity against two anti-target E3 ligases: MDM2 and SCF-βTrCP (FIGS. 6A-B). Compounds C1 and C2 were identified from the primary VLS and C16 and C20 were identified from a second VLS (FIG. 2).
In vitro reconstituted assays were performed as previously described (Dorrello et al., “S6K1- and betaTRCP-mediated Degradation of PDCD4 Promotes Protein Translation and Cell Growth,” Science 314:467-471 (2006), which is hereby incorporated by reference in their entirety) with the exceptions of the use of (1) unlabeled proteins (wild-type and mutant Skp2 and Cks1, p27, Flag-βTrCP, and HA-PDCD4) generated by in vitro transcription-translation (TNT T7 Coupled Reticulocyte Lysate System, Promega); (2) chain elongation with non-methylated ubiquitin; and (3) immunoblotting to detect poly-ubiquitylation. The following reagents were obtained from Boston Biochem: UBE1, His-UbcH3, His-UbcH5c, Ubiquitin, and Ubiquitin Aldehyde. Additional reagents include CDK2/CyclinE1 (Sigma-Aldrich), S6K (Invitrogen), Okadaic acid (Sigma), and DMSO (Sigma-Aldrich). For ubiquitin charging, UBE1 (100 nM) and His-UbcH3 (10 ng/μl) were incubated with ubiquitin (2.5 μg/μl), ATP (2 mM), and 10 μM […] of inhibitors or Vehicle control for 60 min at 30° C. Reactions were stopped in nondenaturing 2× Sample Buffer, with the addition of 10% Beta-mercaptoethanol as indicated, and analyzed by Western blotting.

The next test relates to p27 in ECC-1 cells. Briefly: p27 immunoblot in ECC-1 cells (whole cell lysates, nuclear and cytoplasmic fractions). Conditions: for Block of E2-induced decrease of p27: ECC-1, control siRNA transfected, 1 nM E2 plus 1 μM Lactacystin or 10 nM ICI 182,780.
The target in a further test is T2, Skp2-p27 interaction (Homo sapiens, UniProt P61024+Q13309).
T2 construct: made in house; host or cells: cell-free: rabbit reticulocyte lysate (TNT T7 Coupled Reticulocyte Lysate System, Promega) from pcDNA3.1 plasmids
Briefly: p27 binding to HA-Skp2 (HA-immunoprecipitation). Conditions: 10 μM; HA-Skp2 and Cks1 pretreated before p27-pT187; without ubiquitylation. On the procedure: In vitro ubiquitylation assays were incubated with anti-HA affinity matrix (Roche) in IP buffer (50 mM Tris pH 7.6, 150 mM NaCl, 0.1% NP40, and Roche Complete EDTA-free protease tablet) for 16 h at 4° C. Beads were washed 3× with IP buffer and eluted with 2×SDS Sample Buffer (Boston Bioproducts) and 10% Beta-mercaptoethanol. For binding without ubiquitylation, HA-Skp2 IVT (10 μl) and Cks1 IVT (10 μl) were preincubated with anti-HA affinity matrix in IP buffer for 2 hours, with the addition of p27 kinase reaction (10 μl) for another 16 h incubation at 4° C. All reactions were analyzed after SDS/PAGE by western blotting. Where indicated, Skp2 and Cks1 were pretreated with 10 μM inhibitors for 30 minutes. Kinase reactions were performed with p27 IVT (10 μl) and 0.5 μg/ul CyclinE/CDK2 in kinase buffer (50 mM Tris HCL pH 7.5, 10 mM MgCl2, 2 mM ATP, 2.5 μM Okadaic Acid, and 0.6 mM DTT) at 30° C. for 1 h.

Another test concerns the target T3, His-6Skp1-Skp2-Cks1 (Homo sapiens, UniProt P61024+Q13309).
T3 construct: His6-tagged human Skp2 (residues 89-424); Human full-length Cks1 was produced as described; made in house
Briefly: Differential scanning fluorimetry (protein melt). The test is classed as binding. The conditions noted are these: compound 75 μM; protein 1.5 μM. Here is the method:
Protein melt assays were carried out following the manufacturer's protocol on the LightCycler 480 System II (Roche) using Sypro Orange dye (Sigma). Fluorescence (465 nm excitation/580 nm detection) was acquired (10 data points/sec) at a ramp rate of 0.06° C./sec between 20° C. and 85° C. Melting temperatures were calculated using the LightCycler 480 Protein Melt analysis tool (Roche).

For test [1], the system named is p27 in 501 Mel, SK-MEL-147, and SK-MEL-173. Briefly: Immunoblot of steady state protein levels in metastatic melanoma cell lines. The test is classed as cell-based, human. The conditions noted are these: 501 Mel cells; 400 nM. Here is the method: 501 Mel cells were also treated with MG-132 (a proteasome inhibitor) to confirm that p27 and p21 induction were responsive to known UPS inhibitors (FIG. 4A, right). […] Thus, treatment of cells with inhibitors targeting the Skp2-Cks1 interface induces protein levels of specific Skp2-Cks1 substrates.
Whole cell extracts were prepared and immunoblotted as previously described Dorrello et al., “S6K1- and betaTRCP-mediated Degradation of PDCD4 Promotes Protein Translation and Cell Growth,” Science 314:467-471 (2006), which is hereby incorporated by reference in its entirety. For knockdown of Skp2 or p27, shRNAs were induced with 2 ng/ml doxycycline for 48 hours, with the last 16 hours co-treated with 0.1% Vehicle or 10 μM inhibitors as indicated. For cycloheximide chase, cells were pretreated 16 h with 0.1% Vehicle or 10 μM inhibitors, followed by 20 ng/ml cycloheximide (Sigma) and whole cell extracts collected for each time point. […] Scanning densitometry was performed on immunoblots using Image J software. For cell cycle analysis, cells were treated with 0.1% Vehicle or 10 μM inhibitors for 16 h. 1×10^6 cells were fixed in 70% ethanol for 2 h, treated with 200 μg/ml RNase A (Invitrogen) for 30 minutes, and stained with 20 μg/ml Propidium Iodine (Sigma). All samples were assayed in triplicates. Signal was detected using the Becton Dickson LSRII flow cytometer and cell cycle profiles were analyzed with FloJo.

A further test relates to ECC-1 cells. Briefly: ECC-1 cell proliferation (MTS assay). The conditions noted are these: Lactacystin-treated cells. The test is classed as cell-based, human.

T2 sequence (Q13309 whole entry): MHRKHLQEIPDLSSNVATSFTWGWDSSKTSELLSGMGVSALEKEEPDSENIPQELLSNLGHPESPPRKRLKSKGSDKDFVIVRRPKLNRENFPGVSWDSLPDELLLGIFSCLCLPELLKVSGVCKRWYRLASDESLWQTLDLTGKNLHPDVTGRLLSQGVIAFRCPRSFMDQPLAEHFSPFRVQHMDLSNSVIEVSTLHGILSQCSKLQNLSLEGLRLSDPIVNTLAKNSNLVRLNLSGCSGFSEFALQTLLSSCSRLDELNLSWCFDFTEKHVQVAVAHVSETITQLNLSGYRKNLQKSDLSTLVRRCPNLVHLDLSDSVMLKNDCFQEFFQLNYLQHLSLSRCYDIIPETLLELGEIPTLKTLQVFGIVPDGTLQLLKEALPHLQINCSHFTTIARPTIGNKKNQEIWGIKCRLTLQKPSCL
T2 sequence (P61024 whole entry): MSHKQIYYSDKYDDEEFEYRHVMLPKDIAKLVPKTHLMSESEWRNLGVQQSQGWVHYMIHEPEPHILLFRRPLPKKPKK
T2 sequence (P63208 whole entry partner): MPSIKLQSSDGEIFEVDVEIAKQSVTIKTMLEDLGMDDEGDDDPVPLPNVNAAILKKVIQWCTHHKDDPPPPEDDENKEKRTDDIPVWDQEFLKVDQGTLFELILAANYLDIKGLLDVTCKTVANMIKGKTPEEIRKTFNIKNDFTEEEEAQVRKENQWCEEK
T2 sequence (Q13616 whole entry partner): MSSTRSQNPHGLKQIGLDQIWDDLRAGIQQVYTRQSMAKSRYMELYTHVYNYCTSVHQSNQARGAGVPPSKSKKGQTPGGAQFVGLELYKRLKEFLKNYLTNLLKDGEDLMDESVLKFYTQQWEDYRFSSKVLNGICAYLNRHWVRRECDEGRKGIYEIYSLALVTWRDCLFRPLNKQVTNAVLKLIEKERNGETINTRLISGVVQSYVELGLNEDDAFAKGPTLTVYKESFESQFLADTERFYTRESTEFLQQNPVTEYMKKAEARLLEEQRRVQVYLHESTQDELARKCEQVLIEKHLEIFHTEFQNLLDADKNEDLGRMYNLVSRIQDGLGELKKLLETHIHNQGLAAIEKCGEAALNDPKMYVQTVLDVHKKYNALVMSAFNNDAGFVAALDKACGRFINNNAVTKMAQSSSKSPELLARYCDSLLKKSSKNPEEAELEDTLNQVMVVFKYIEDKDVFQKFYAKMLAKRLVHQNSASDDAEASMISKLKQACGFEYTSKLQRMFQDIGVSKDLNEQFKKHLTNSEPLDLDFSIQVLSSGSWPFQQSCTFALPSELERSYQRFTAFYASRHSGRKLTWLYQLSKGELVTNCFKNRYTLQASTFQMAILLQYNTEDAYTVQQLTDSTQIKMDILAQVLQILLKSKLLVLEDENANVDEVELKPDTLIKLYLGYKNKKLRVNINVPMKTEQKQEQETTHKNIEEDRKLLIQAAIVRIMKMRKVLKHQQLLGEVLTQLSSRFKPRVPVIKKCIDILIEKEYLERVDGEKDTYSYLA
T2 sequence (P62877 whole entry partner): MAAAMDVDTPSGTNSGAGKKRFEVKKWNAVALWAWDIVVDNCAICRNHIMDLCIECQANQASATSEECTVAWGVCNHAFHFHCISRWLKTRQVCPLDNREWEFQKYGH
T3 sequence (Q13309 89-424 limits assumed): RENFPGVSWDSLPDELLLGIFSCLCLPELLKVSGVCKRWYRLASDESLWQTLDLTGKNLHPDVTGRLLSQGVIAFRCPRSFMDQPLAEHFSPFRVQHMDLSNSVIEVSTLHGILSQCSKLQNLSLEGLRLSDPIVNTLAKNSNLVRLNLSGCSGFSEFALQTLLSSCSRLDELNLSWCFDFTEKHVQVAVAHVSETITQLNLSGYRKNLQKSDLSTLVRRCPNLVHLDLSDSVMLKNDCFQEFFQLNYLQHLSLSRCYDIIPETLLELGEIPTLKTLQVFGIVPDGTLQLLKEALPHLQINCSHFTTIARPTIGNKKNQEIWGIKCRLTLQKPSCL
T3 sequence (P61024 whole entry, the tested form may be a part): as the sequence (P61024 whole entry) above
T1 sequence (Q13309 whole entry): as the sequence (Q13309 whole entry) above
T1 sequence (P61024 whole entry): as the sequence (P61024 whole entry) above
T1 sequence (P63208 whole entry partner): as the sequence (P63208 whole entry partner) above
T1 sequence (Q13616 whole entry partner): as the sequence (Q13616 whole entry partner) above
T1 sequence (P62877 whole entry partner): as the sequence (P62877 whole entry partner) above
Protocol for p27 in ECC-1 cells: The endometrial carcinoma cell line (derived from a well-differentiated endometrioid Type I ECA) ECC-1 cells (ATCC, Manassas, Va.) were plated at a density of 3×10^5/well/6-well plate and grown in DMEM:F12 supplemented with 10% FBS (BioWest, Ocala, Fla.). The cell line was passaged in the laboratory for fewer than 6 months after receipt. […] ECAs were plated at a density of 2.2×10^6 cells/6-well Primaria® plates (BD Biosciences, San Jose, Calif.) in McCoys 5A media without phenol red containing 10% charcoal-stripped FBS, 2 mM L-Glutamine (Invitrogen) and antimycotic antibiotic solution (Mediatech, Hendon, Va.).
For subcellular fractionation, following treatments, cells were separated into nuclear and cytoplasmic fractions using the NE-PER kit (Thermo Scientific), and 10 μg cytoplasmic and nuclear protein fractions were loaded onto SDS-PAGE for immunoblotting. […] The membranes were incubated with peroxidase-conjugated goat anti-rabbit or goat anti-mouse secondary antibodies in TBST (1:2000; Thermo Scientific). […] Protein bands were resolved using the SuperSignal West Dura kit (Thermo Scientific), visualized by exposure to X-ray film (HyBlot; Denville Scientific, Denville, N.J.), and following densitometric scanning (Kodak Logic-100), the protein bands were quantified by normalizing to β-actin and compared to the untreated control, and the values represented by the graphs of relative protein levels compared to actin in each well and shown as % of Vehicle control.

`COCCCN1C(=O)C(=Cc2ccccc2O)C(C(=O)OC)=C1C` [UM-C2a, reference compound]: the “Inhibition of Skp2-mediated p27 ubiquitylation” value at SCF-Skp2 (Skp2-Cks1) was “partially reduced p27 ubiquitylation”.

As for `COc1cccc(-c2cc(=O)c3ccccc3o2)c1N` [PD 98059, PD98059, reference compound], in the test on p27 in ECC-1 cells (ECC-1, E2 plus 20 μM PD98059, 18 h), the “p27 less than control” value turned out to be 24%.

With `C[C@]12CC[C@@H]3c4ccc(O)cc4C[C@@H](CCCCCCCCC[S+]([O-])CCCC(F)(F)C(F)(F)F)[C@H]3[C@@H]1CC[C@@H]2O` (some centres unmarked) [ICI 182,780, reference compound], the “Block of E2-induced decrease of p27” value in the test on p27 in ECC-1 cells (18 h) is recorded as “nearly completely blocked”. The “Effect on E2-induced decrease in nuclear p27” value in the test on p27 in ECC-1 cells (ECC-1, E2 plus 10 nM ICI 182,780, 18 h) is recorded as “to the level of untreated control”.

For the compound `COc1ccc(Br)cc1C=C1SC(=S)N(Cc2cccnc2)C1=O` [UM-C1, reference compound], on Skp2-p27 interaction, the “p27 binding to Skp2” value is on record as “lost the ability to inhibit p27 from binding to Skp2”. Also, the “Shift of melting temperature (Tm) of purified protein complex” value on His-6Skp1-Skp2-Cks1 is given as “not”.

As for `NS(=O)(=O)OC[C@@H]1C[C@@H](n2ccc3c(N[C@H]4CCc5ccccc54)ncnc32)C[C@@H]1O` [MLN-4924, reference compound], in test [1], the “Neddylation of Cul1” value is on record as “inhibited neddylation of Cul1”.

Regarding `CC(=O)N[C@@H](CSC(=O)[C@]1([C@@H](O)C(C)C)NC(=O)[C@H](C)[C@@H]1O)C(=O)O` [Lactacystin, reference compound], in the test with ECC-1 cells, the Inhibition of proliferation was determined as 36%. Further, the “p27 in nuclear and cytoplasmic fractions” value in the test on p27 in ECC-1 cells (ECC-1 (FIG. 11D)) was “increases p27 in both subcellular fractions”. In addition, in the test with p27 in ECC-1 cells (18 h), the “Block of E2-induced decrease of p27” value was “completely blocked”.

Turning to `CCN1C(=O)C(=Cc2ccccc2O)C(C(=O)OC)=C1C` [UM-C2b, reference compound], on Skp2-p27 interaction, the “p27 binding to Skp2” value is “lost the ability to inhibit p27 from binding to Skp2”.

The record behind these values is patent US9261497B2, “Method of treating cancer with modulators of SCFSkp2” (New York University, priority 2012, dated 2016).
